# Experimental data as given in patent US20120214847A1, “2-[1-PHENYL-5-HYDROXY-4a-SUBSTITUTED-HEXAHYDROCYCLOPENTA[F]INDAZOL-5-YL]ETHYL PHENYL DERIVATIVES AS GLUCOCORTICOID RECEPTOR LIGANDS” (Merck Sharp & Dohme Corp., priority 2009, published 2012).
# Molecular target: T1, glucocorticoid receptor (Homo sapiens, UniProt P04150)
# T1 construct: endogenous in cells; host or cells: HeLa (ATCC) cell lysate supernatant
# T1 sequence (P04150 1-777): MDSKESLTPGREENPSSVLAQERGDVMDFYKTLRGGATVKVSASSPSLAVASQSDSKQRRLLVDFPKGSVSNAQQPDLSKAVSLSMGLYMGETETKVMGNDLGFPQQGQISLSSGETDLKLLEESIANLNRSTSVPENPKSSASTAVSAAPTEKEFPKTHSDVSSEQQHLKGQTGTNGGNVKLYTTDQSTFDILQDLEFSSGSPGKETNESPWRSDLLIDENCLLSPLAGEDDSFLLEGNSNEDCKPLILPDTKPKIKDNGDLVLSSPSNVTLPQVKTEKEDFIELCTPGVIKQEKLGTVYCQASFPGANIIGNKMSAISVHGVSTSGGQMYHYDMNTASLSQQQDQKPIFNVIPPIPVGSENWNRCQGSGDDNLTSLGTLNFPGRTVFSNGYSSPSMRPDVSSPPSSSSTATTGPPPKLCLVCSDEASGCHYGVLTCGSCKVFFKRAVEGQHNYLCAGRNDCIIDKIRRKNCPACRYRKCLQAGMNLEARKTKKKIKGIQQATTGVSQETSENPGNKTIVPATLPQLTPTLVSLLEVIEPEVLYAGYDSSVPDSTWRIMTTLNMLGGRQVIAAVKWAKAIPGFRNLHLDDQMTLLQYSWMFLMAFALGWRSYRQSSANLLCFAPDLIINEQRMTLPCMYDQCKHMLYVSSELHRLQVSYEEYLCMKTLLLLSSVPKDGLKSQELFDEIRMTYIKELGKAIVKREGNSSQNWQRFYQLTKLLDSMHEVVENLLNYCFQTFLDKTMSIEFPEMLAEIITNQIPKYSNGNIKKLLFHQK
# Test: Ligand binding assay (GRBind), 3H-dexamethasone displacement in HeLa cell lysate
# Details: 3H-DEX tracer
# Method: Binding Buffer: TEGM (10 mM Tris-HCl, 1 mM EDTA, 10% glycerol, 1 mM betamecaptoethanol, 10 mM Sodium Molybdate, pH 7.2)
# 50% HAP Slurry: Calbiochem Hydroxylapatite, Fast Flow, in 10 mM Tris, pH 8.0 and 1 mM EDTA.
# Wash Buffer: 40 mM Tris, pH7.5, 100 mM KCl, 1 mM EDTA and 1 mM EGTA. 95% EtOH Dexmethasone-methyl-3H, (DEXA*); (Amersham cat#TRK645) Dexamethasone(DEX) (Sigma, cat#01756):
# Hydroxylapatite Fast Flow; Calbiochem Cat#391947
# 25 Molybdate=Molybdic Acid (Sigma, M1651)
# 5 Cells (Hall R. E., et al., European Journal of Cancer, 30A: 484-490 (1994)) HeLa (ATCC) cultured in RPMI 1640 (Gibed 11835-055) containing 20 mM Hepes, 4 mM L-glu, 10 ug/ml of human insulin (Sigma, 1-0259), 10% FBS and 20 uglml of Gentamicin (Gibco#15710072) are rinsed twice in PBS. Phenol red-free Trypsin-EDTA is diluted in the same PBS 1:10. The cell layers are rinsed with IX Trypsin, extra Trypsin is poured out, and the cell layers are incubated at 37° C. for 2 min. The flask is tapped and checked for signs of cell detachment. Once the cells begin to slide off the flask, the complete media is added. The cells are counted at this point, then diluted to the appropriate concentration and split into flasks or dishes for further culturing (Usually 1:3 to 1:6 dilution).
# Preparation of HeLa Cell Lysate
# When the cells are 70 to 85% confluent, they are detached as described above, and collected by centrifuging at 1000 g for 10 min at 4° C. The cell pellet is washed twice with TEGM (10 mM Tris-HCl, 1 mM EDTA, 10% glycerol, 1 mM beta-mercaptoethanol, 10 mM Sodium Molybdate, pH 7.2). After the final wash, the cells are resuspended in TEGM at a concentration of 10^7 cells/mL. The cell suspension is snap frozen in liquid nitrogen or ethanol/dry ice bath and transferred to −80° C. freezer on dry ice. Before setting up the binding assay, the frozen samples are left on ice-water to just thaw. Then the samples are centrifuged at 12,500 g to 20,000 g for 30 min at 4° C. The supernatant is used to set-up assay right away. If using 50 μL of supernatant, the test compound can be prepared in 50 μL of the TEGM buffer.
# Procedure for Multiple Compound Screening
# 1×TEGM buffer is prepared, and the isotope-containing assay mixture is prepared in the following order: EtOH (2% final concentration in reaction), 3H-DEX (Amersham Biosciences) and 1×TEGM. [e.g. For 100 samples, 200 JlL (100×2) of EtOH+4.25 JlL of 1:10 ^3H-Dex stock+2300 μL (100×23) 1×TEGM]. The compound is serially diluted, e.g., if starting final conc. is 1 μM, and the compound is in 25 μL of solution, for duplicate samples, 75 μL of 4×1 μM solution is made and 3 μL of 100). 1M is added to 72 μL of buffer, and 1:5 serial dilution.
# 25 μL of ^3H-DEX (6 nM) trace and 25 μL, compound solution are first mixed together, followed by addition of 50 μL receptor solution. The reaction is gently mixed, spun briefly at about 200 rpm and incubated at 4° C. overnight. 100 μL of 50% HAP slurry is prepared and added to the incubated reaction which is then vortexed and incubated on ice for 5 to 10 min. The reaction mixture is vortexed twice more to resuspend HAP while incubating reaction. The samples in 96-well format are then washed in wash buffer using the FilterMate™ Universal Harvester plate washer (Packard). The washing process transfers HAP pellet containing ligand-bound expressed receptor to Unifilter-96 GFIB filter plate (Packard). The HAP pellet on the filter plate is incubated with […] of MICROSCINT (Packard) scintillant for 30 min before being counted on the TopCount microscintillation counter (Packard). IC50s are calculated using DEX as a reference.
row,Ki,SMILES
1,1.25 nM,"COc1cccc(CC[C@]2(O)CCC3=Cc4c(cnn4-c4ccc(F)cc4)C[C@@]32C2CC2)c1C(N)=O [Example 38, 2-{2-[(4aR,5R)-4a-Cyclopropyl-1-(4-fluorophenyl)-5-hydroxy-1,4,4a,5,6,7-hexahydrocyclopenta[f]indazol-5-yl]ethyl}-6-methoxybenzamide]"
2,1.98 nM,"NC(=O)c1cc(F)ccc1CC[C@]1(O)CCC2=Cc3c(cnn3-c3ccc(F)cc3)C[C@@]21C1CC1 [Example 39, 2-{2-[(4aR,5R)-4a-Cyclopropyl-1-(4-fluorophenyl)-5-hydroxy-1,4,4a,5,6,7-hexahydrocyclopenta[f]indazol-5-yl]ethyl}-5-fluorobenzamide]"
3,2.45 nM,"CC[C@]12Cc3cnn(-c4ccc(F)cc4)c3C=C1CC[C@@]2(O)CCc1ccccc1S(=O)(=O)C(C)C [Example 40, (4aS,5R)-4a-Ethyl-1-(4-fluorophenyl)-5-{2-[2-(propan-2-ylsulfonyl)phenyl]ethyl}-1,4,4a,5,6,7-hexahydrocyclopenta[f]indazol-5-ol]"
4,2.63 nM,"CC[C@]12Cc3cnn(-c4ccc(F)cc4)c3C=C1CC[C@@]2(O)CCc1nccc(C2CC2)c1C(=O)OC [Example 41, Methyl 4-cyclopropyl-2-{2-[(4aS,5R)-4a-ethyl-1-(4-fluorophenyl)-5-hydroxy-1,4,4a,5,6,7-hexahydrocyclopenta[f]indazol-5-yl]ethyl}pyridine-3-carboxylate]"
5,1.97 nM,"CC[C@]12Cc3cnn(-c4ccc(F)cc4)c3C=C1CC[C@@]2(O)CCc1ccccc1S(C)(=O)=O [Example 42, (4aS,5R)-4a-Ethyl-1-(4-fluorophenyl)-5-{2-[2-(methylsulfonyl)phenyl]ethyl}-1,4,4a,5,6,7-hexahydrocyclopenta[f]indazol-5-ol]"
6,5.47 nM,"NC(=O)CNC(=O)c1cccnc1CC[C@]1(O)CCC2=Cc3c(cnn3-c3ccc(F)cc3)C[C@@]21C1CC1 [Example 43, N-(2-Amino-2-oxoethyl)-2-{2-[(4aR,5R)-4a-cyclopropyl-1-(4-fluorophenyl)-5-hydroxy-1,4,4a,5,6,7-hexahydrocyclopenta[f]indazol-5-yl]ethyl}pyridine-3-carboxamide]"
7,4.6 nM,"NC(=O)CNC(=O)c1cc(F)cnc1CC[C@]1(O)CCC2=Cc3c(cnn3-c3ccc(F)cc3)C[C@@]21C1CC1 [Example 44, N-(2-Amino-2-oxoethyl)-2-{2-[(4aR,5R)-4a-cyclopropyl-1-(4-fluorophenyl)-5-hydroxy-1,4,4a,5,6,7-hexahydrocyclopenta[f]indazol-5-yl]ethyl}-5-fluoropyridine-3-carboxamide]"
8,2.09 nM,"CC(C)(CO)NC(=O)c1ccccc1CC[C@]1(O)CCC2=Cc3c(cnn3-c3ccc(F)cc3)C[C@@]21C1CC1 [Example 45, 2-{2-[(4aR,5R)-4a-Cyclopropyl-1-(4-fluorophenyl)-5-hydroxy-1,4,4a,5,6,7-hexahydrocyclopenta[f]indazol-5-yl]ethyl}-N-(1-hydroxy-2-methylpropan-2-yl)benzamide]"
9,1.99 nM,"O=C(NC1(CO)CC1)c1ccccc1CC[C@]1(O)CCC2=Cc3c(cnn3-c3ccc(F)cc3)C[C@@]21C1CC1 [Example 46, 2-{2-[(4aR,5R)-4a-Cyclopropyl-1-(4-fluorophenyl)-5-hydroxy-1,4,4a,5,6,7-hexahydrocyclopenta[f]indazol-5-yl]ethyl}-N-[1-(hydroxymethyl)cyclopropyl]benzamide]"
10,1.43 nM,"NC(=O)CNC(=O)c1ccccc1CC[C@]1(O)CCC2=Cc3c(cnn3-c3ccc(F)cc3)C[C@@]21C1CC1 [Example 47, N-(2-Amino-2-oxoethyl)-2-{2-[(4aR,5R)-4a-cyclopropyl-1-(4-fluorophenyl)-5-hydroxy-1,4,4a,5,6,7-hexahydrocyclopenta[f]indazol-5-yl]ethyl}benzamide]"
11,3.55 nM,"CC(C)(CO)NC(=O)c1cc(F)cnc1CC[C@]1(O)CCC2=Cc3c(cnn3-c3ccc(F)cc3)C[C@@]21C1CC1 [Example 48, 2-{2-[(4aR,5R)-4a-Cyclopropyl-1-(4-fluorophenyl)-5-hydroxy-1,4,4a,5,6,7-hexahydrocyclopenta[f]indazol-5-yl]ethyl}-5-fluoro-N-(1-hydroxy-2-methylpropan-2-yl)pyridine-3-carboxamide]"
12,2.7 nM,"NC(=O)c1c(C2CC2)ccnc1CC[C@]1(O)CCC2=Cc3c(cnn3-c3ccc(F)cc3)C[C@@]21C1CC1 [Example 49, 4-Cyclopropyl-2-{2-[(4aR,5R)-4a-cyclopropyl-1-(4-fluorophenyl)-5-hydroxy-1,4,4a,5,6,7-hexahydrocyclopenta[f]indazol-5-yl]ethyl}pyridine-3-carboxamide]"
13,2.09 nM,"O=C(NCCO)c1ccccc1CC[C@]1(O)CCC2=Cc3c(cnn3-c3ccc(F)cc3)C[C@@]21C1CC1 [Example 50, 2-{2-[(4aR,5R)-4a-Cyclopropyl-1-(4-fluorophenyl)-5-hydroxy-1,4,4a,5,6,7-hexahydrocyclopenta[f]indazol-5-yl]ethyl}-N-(2-hydroxyethyl)benzamide]"
14,2.45 nM,"CC[C@]12Cc3cnn(-c4ccc(F)cc4)c3C=C1CC[C@@]2(O)CCc1ccccc1S(=O)(=O)CC [Example 51, (4aS,5R)-4a-Ethyl-5-{2-[2-(ethylsulfonyl)phenyl]ethyl}-1-(4-fluorophenyl)-1,4,4a,5,6,7-hexahydrocyclopenta[f]indazol-5-ol]"
15,9.83 nM,"CC[C@]12Cc3cnn(-c4ccc(F)cc4)c3C=C1CC[C@@]2(O)CCc1ncccc1C(N)=O [Example 52, 2-{2-[(4aS,5R)-4a-Ethyl-1-(4-fluorophenyl)-5-hydroxy-1,4,4a,5,6,7-hexahydrocyclopenta[f]indazol-5-yl]ethyl}pyridine-3-carboxamide]"
16,5.97 nM,"CC[C@]12Cc3cnn(-c4ccc(F)cc4)c3C=C1CC[C@@]2(O)CCc1ncc(F)cc1C(N)=O [Example 53, 2-{2-[(4aS,5R)-4a-Ethyl-1-(4-fluorophenyl)-5-hydroxy-1,4,4a,5,6,7-hexahydrocyclopenta[f]indazol-5-yl]ethyl}-5-fluoropyridine-3-carboxamide]"
17,2.44 nM,"COc1ccnc(CC[C@]2(O)CCC3=Cc4c(cnn4-c4ccc(F)cc4)C[C@@]32C2CC2)c1C(N)=O [Example 54, 2-{2-[(4aR,5R)-4a-Cyclopropyl-1-(4-fluorophenyl)-5-hydroxy-1,4,4a,5,6,7-hexahydrocyclopenta[f]indazol-5-yl]ethyl}-4-methoxypyridine-3-carboxamide]"
